The record followed here is US10301317B2, “Inhibitors of ERK and methods of use” (Kura Oncology, Inc., priority 2013, dated 2019).

Molecules are shown by their SMILES. pIC50: −log10 of the molar value. A value given as a limit tells only on which side of the number the result lay.

The experiment deals with phospho-p90 RSK (RSK1 Thr359/Ser363) in A375 (Braf V600E) cells. As to the kind of experiment: Phospho-p90 RSK ELISA using A375 (Braf V600E) cells. The class given is cell-based. The note with it: Homo sapiens, A-375, 2 hours compound treatment, read-out: Cellular Phospho-p90RSK IC50. As to the method: In preparation for the assay, an ELISA plate with the pre-coated goat anti-mouse antibody (Thermo Scientific) was treated with a mouse anti-human RSK1 antibody (monoclonal, Invitrogen) at 1:800 dilution (150 ng/well) in PBS, and the plate was placed on a plate shaker at 4° C. overnight. […] After two […] of the compound treatment, the supernatant was removed from the cell plate, and cells were lysed in 100 μl per well of cell lysis buffer (Cell Signaling Technologies) containing phosphatase and protease inhibitors (Cell Signaling Technologies) on a plate shaker at 4° C. for 20 minutes. The ELISA plate was washed four times with ELISA wash buffer (Thermo Scientific) prior to addition of 100 μL cell lysate. The lysate was incubated on the ELISA plate with gentle shaking at room temperature for 2 hours. The contents of the wells were removed, and the ELISA plate was washed four times with wash buffer, and incubated with 100 μL per well of anti-phospho-RSK1 (Thr359/Ser363) rabbit monoclonal antibody (Millipore) at dilution of 1:1000 in StartingBlock buffer (Thermo Scientific) on a plate shaker at room temperature for 1 hour. The contents of the wells were removed, the ELISA plate was washed four times with wash buffer, and was incubated with 100 μL per well of goat anti-rabbit HRP (Thermo Scientific) at dilution of 1:3000 in StartingBlock buffer (Thermo Scientific) on a plate shaker at room temperature for 1 hour. The contents of the wells were removed, the ELISA plate was washed four times with wash buffer, and then incubated with 100 μL per well of TMB substrate solution (Thermo Scientific) on a plate shaker at room temperature for 20 minutes. Finally, 100 μL of TMB stop solution (Thermo Scientific) was added to each well and the absorbance is measured at 450 nm on a Tecan plate reader.
(In general: ELISA stands for enzyme-linked immunosorbent assay.)

As usually defined, the pIC50 is −log10 of the IC50, conventionally taken in molar units. Consider `Cc1cc(-c2n[nH]c3cc4c(cc23)CN([C@@H]2CCCN(Cc3cc(C5CC5)on3)C2)C(=O)N4)ccn1` [Example 188], for which the pIC50 is at least 6.60. `Cc1cc(-c2n[nH]c3cc4c(cc23)CN(C2CN(CCC3CC3)C2)C(=O)N4)ccn1` [Example 189]: the pIC50 is below 6.00. Then `Cc1cc(-c2n[nH]c3cc4c(cc23)CN(C2CN(Cc3ccccc3)C2)C(=O)N4)ccn1` [Example 191], with 6.00 to 6.60.

Take `Cc1cc(-c2n[nH]c3cc4c(cc23)CN(C2CN(CCc3ccccc3)C2)C(=O)N4)ccn1` [Example 192]: the pIC50 is 6.00 to 6.60. Then `Cc1cc(-c2n[nH]c3cc4c(cc23)CN([C@@H]2CCCN(C3CCCCC3)C2)C(=O)N4)ccn1` [Example 194], with 6.00 to 6.60; and `Cc1cc(-c2n[nH]c3cc4c(cc23)CN([C@@H]2CCCN(Cc3sc(C)nc3C)C2)C(=O)N4)ccn1` [Example 195], with 6.00 to 6.60. Turning to `Cc1cc(-c2n[nH]c3cc4c(cc23)CN([C@@H]2CCCN(CC(=O)C(C)(C)C)C2)C(=O)N4)ccn1` [Example 203], the pIC50 is 6.00 to 6.60. For `Cc1cc(-c2n[nH]c3cc4c(cc23)CN([C@@H]2CCN(CC3CCCC3)C2)C(=O)N4)ccn1` [Example 206] the value was below 6.00; for `Cc1cc(-c2n[nH]c3cc4c(cc23)CN([C@@H]2CCN(CCC(C)C)C2)C(=O)N4)ccn1` [Example 207], 6.00 to 6.60; for `Cc1cc(-c2n[nH]c3cc4c(cc23)CN(CC2CCCN(Cc3ccccc3)C2)C(=O)N4)ccn1` (stereo not shown) [Example 208], below 6.00. For `Cc1cc(-c2n[nH]c3cc4c(cc23)CN([C@@H]2CCCN(CC(=O)C(C)C)C2)C(=O)N4)ccn1` [Example 209] the value was 6.00 to 6.60; for `Cc1cc(-c2n[nH]c3cc4c(cc23)CN([C@@H]2CCCN(C3CCC3)C2)C(=O)N4)ccn1` [Example 210], below 6.00; for `Cc1cc(-c2n[nH]c3cc4c(cc23)CN([C@@H]2CCCN(C3CCCC3)C2)C(=O)N4)ccn1` [Example 215], 6.00 to 6.60. `Cc1cc(-c2n[nH]c3cc4c(cc23)CN(Cc2ccccc2Cl)C(=O)N4)ccn1` [Example 217]: the pIC50 is at least 6.60. Then `Cc1cc(-c2n[nH]c3cc4c(cc23)CN(Cc2ccccc2C(F)(F)F)C(=O)N4)ccn1` [Example 218], with 6.00 to 6.60. For the molecule `Cc1cc(-c2n[nH]c3cc4c(cc23)CN(C2CCOC(C)(C)C2)C(=O)N4)ccn1` (stereo not shown) [Example 219], the pIC50 was 6.00 to 6.60. For `Cc1cc(-c2n[nH]c3cc4c(cc23)CN(CCC2CCOCC2)C(=O)N4)ccn1` [Example 220] the value was at least 6.60; for `CC(C)c1cc(-c2n[nH]c3cc4c(cc23)CN(Cc2cccc(Cl)c2)C(=O)N4)ccn1` [Example 230], 6.00 to 6.60; for `Cc1cc(-c2n[nH]c3cc4c(cc23)CN(C2CCC(=O)N(Cc3ccccc3)C2)C(=O)N4)ccn1` (stereo not shown) [Example 232], 6.00 to 6.60. As for `Cc1cc(-c2n[nH]c3cc4c(cc23)CN(Cc2ccc(C(F)(F)F)cc2)C(=O)N4)cc(C)n1` [Example 233], the pIC50 is at least 6.60. For `Cn1nccc1-c1n[nH]c2cc3c(cc12)CN(Cc1cccc(Cl)c1)C(=O)N3` [Example 235] the value was below 6.00. As to `Cc1cc(-c2n[nH]c3cc4c(cc23)CN([C@@H]2CCCN(CC(O)C(C)(C)C)C2)C(=O)N4)ccn1` (stereo partly shown) [Example 236], the pIC50 is below 6.00. Then `Cc1cc(-c2n[nH]c3cc4c(cc23)CN([C@@H]2CCCN(c3cccc(C)n3)C2)C(=O)N4)ccn1` [Example 238], with at least 6.60; and `Cc1cc(-c2n[nH]c3cc4c(cc23)CN(Cc2nc(C)cs2)C(=O)N4)ccn1` [Example 246], with at least 6.60; and `Cc1cc(-c2n[nH]c3cc4c(cc23)CN([C@@H]2CCCN(C(C)C)C2)C(=O)N4)ccn1` [Example 247], with below 6.00. Then `Cc1cc(-c2n[nH]c3cc4c(cc23)CN([C@@H]2CCN(c3cccc(Cl)c3)C2)C(=O)N4)ccn1` [Example 249], with at least 6.60.

With `Cc1cc(-c2n[nH]c3cc4c(cc23)CN(CC2CCOCC2)C(=O)N4)cc(C)n1` [Example 250], the pIC50 was at least 6.60.

For `Cc1cc(-c2n[nH]c3cc4c(cc23)CN(CC2CCC2)C(=O)N4)ccn1` [Example 253], the pIC50 was at least 6.60. On to `Cc1cc(-c2n[nH]c3cc4c(cc23)CN([C@@H]2CCN(C)C2)C(=O)N4)ccn1` [Example 255], for which the pIC50 is below 6.00. `CCN1CC[C@@H](N2Cc3cc4c(-c5ccnc(C)c5)n[nH]c4cc3NC2=O)C1` [Example 256]: the pIC50 is below 6.00. For `Cc1cc(-c2n[nH]c3cc4c(cc23)CN(CC2CC2)C(=O)N4)ccn1` [Example 258] the value was at least 6.60; for `Cn1cc(-c2n[nH]c3cc4c(cc23)CN([C@@H]2CCN(CC(F)(F)F)C2)C(=O)N4)cn1` [Example 259], at least 6.60. For the molecule `CN(C)CCN1CCN(c2n[nH]c3cc4c(cc23)CN(Cc2ccc(F)c(Cl)c2)C(=O)N4)CC1` [Example 260], the pIC50 was below 6.00. Turning to `Cn1nccc1-c1n[nH]c2cc3c(cc12)CN([C@@H]1CCCN(Cc2ccccc2)C1)C(=O)N3` [Example 261], the pIC50 was at least 6.60. For `Cc1cc(-c2n[nH]c3cc4c(cc23)CN(C(C)C2CCOCC2)C(=O)N4)ccn1` (stereo not shown) [Example 262] the value was at least 6.60; for `Cc1cc(-c2n[nH]c3cc4c(cc23)CN([C@@H]2CN(Cc3ccccc3)CC(F)(F)C2)C(=O)N4)ccn1` [Example 263], below 6.00. Turning to `Cn1nccc1-c1n[nH]c2cc3c(cc12)CN([C@@H]1CCN(CC(F)(F)F)C1)C(=O)N3` [Example 265], the pIC50 was below 6.00. Then `Cc1cc(-c2n[nH]c3cc4[nH]c(=O)c(CC5CCCCC5)cc4cc23)ccn1` [Example 266], with at least 6.60; and `Cc1cc(-c2n[nH]c3cc4c(cc23)CN([C@@H]2CCN(C(C)C)C2)C(=O)N4)ccn1` [Example 268], with below 6.00; and `Cc1ccc(-c2n[nH]c3cc4c(cc23)CN([C@@H]2CCN(CC(F)(F)F)C2)C(=O)N4)cn1` [Example 274], with at least 6.60. For `COc1ncc(-c2n[nH]c3cc4c(cc23)CN([C@@H]2CCN(CC(F)(F)F)C2)C(=O)N4)cn1` [Example 276] the value was at least 6.60. For `COc1ccc(-c2n[nH]c3cc4c(cc23)CN([C@@H]2CCN(CC(F)(F)F)C2)C(=O)N4)cn1` [Example 277] the value was at least 6.60. On to `Cc1cc(-c2n[nH]c3cc4c(cc23)CN(CCC2CC2)C(=O)N4)ccn1` [Example 283], for which the pIC50 was below 6.00. For `Cc1cc(-c2n[nH]c3cc4c(cc23)CN(C(C)c2nc(C)c(C)s2)C(=O)N4)ccn1` (stereo not shown) [Example 286] the value was at least 6.60; for `Cc1cc(-c2n[nH]c3cc4[nH]c(=O)c([C@@H](C)c5ccc(F)cc5)cc4cc23)ccn1` [Example 287], 6.00 to 6.60. Consider `Cc1cc(-c2n[nH]c3cc4[nH]c(=O)c(C5CCCC5)cc4cc23)ccn1` [Example 289], for which the pIC50 is 6.00 to 6.60. For `Cc1cc(-c2n[nH]c3cc4c(cc23)CN([C@@H]2CCCN(Cc3ccc(F)s3)C2)C(=O)N4)ccn1` [Example 290] the value was at least 6.60; for `Cc1cc(-c2n[nH]c3cc4c(cc23)CN(C(C)C2CCCC2)C(=O)N4)ccn1` (stereo not shown) [Example 294], at least 6.60; for `COc1ncc(-c2n[nH]c3cc4c(cc23)CN([C@@H]2CCCN(Cc3cccs3)C2)C(=O)N4)cn1` [Example 295], at least 6.60.
